Test results: ChEMBL document CHEMBL1149176, “(2R)-2-ethylchromane-2-carboxylic acids: discovery of novel PPARalpha/gamma dual agonists as antihyperglycemic and hypolipidemic agents” (J Med Chem, 2004); call rule not given here
Each block holds one compound with its values, some of them ahead of it.

Columns and labels:
[1] = target: T1, Peroxisome proliferator-activated receptor gamma (Homo sapiens, UniProt P37231); assay: In vitro binding affinity for human peroxisome proliferator activated receptor gamma using scintillation proximity assay (SPA)
T1 sequence (P37231 whole entry): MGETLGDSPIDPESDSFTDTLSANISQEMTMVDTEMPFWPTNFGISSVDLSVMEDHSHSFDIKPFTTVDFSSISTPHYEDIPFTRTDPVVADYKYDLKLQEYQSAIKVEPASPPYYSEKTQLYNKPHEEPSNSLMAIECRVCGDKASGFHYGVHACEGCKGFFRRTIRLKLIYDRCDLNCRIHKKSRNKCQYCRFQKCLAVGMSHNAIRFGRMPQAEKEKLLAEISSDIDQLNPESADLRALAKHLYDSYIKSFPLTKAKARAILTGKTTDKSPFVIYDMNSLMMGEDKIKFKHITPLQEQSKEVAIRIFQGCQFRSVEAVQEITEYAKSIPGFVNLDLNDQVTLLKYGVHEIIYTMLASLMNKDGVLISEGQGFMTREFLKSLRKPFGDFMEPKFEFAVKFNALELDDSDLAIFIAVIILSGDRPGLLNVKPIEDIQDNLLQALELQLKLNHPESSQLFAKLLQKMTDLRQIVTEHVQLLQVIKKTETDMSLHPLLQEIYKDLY

[2] = target: T2, Peroxisome proliferator-activated receptor alpha (Homo sapiens, UniProt Q07869)
T2 sequence (Q07869 whole entry): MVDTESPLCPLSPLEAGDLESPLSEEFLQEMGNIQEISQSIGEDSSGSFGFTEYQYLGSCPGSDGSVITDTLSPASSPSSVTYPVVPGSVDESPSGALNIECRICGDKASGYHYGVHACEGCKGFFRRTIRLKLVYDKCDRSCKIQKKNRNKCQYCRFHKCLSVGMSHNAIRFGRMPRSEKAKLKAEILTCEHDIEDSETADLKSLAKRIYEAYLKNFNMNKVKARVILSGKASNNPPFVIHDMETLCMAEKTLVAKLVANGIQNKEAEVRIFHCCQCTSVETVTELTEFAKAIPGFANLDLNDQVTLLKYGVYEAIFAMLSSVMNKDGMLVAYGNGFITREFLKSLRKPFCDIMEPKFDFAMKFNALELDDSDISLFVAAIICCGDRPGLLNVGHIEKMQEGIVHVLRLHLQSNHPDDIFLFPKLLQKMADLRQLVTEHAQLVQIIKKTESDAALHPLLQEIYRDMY
Description: In vitro binding affinity for human peroxisome proliferator activated receptor alpha using scintillation proximity assay (SPA)

[3] = target: T3, Peroxisome proliferator-activated receptor delta (Homo sapiens, UniProt Q03181)
T3 sequence (Q03181 whole entry): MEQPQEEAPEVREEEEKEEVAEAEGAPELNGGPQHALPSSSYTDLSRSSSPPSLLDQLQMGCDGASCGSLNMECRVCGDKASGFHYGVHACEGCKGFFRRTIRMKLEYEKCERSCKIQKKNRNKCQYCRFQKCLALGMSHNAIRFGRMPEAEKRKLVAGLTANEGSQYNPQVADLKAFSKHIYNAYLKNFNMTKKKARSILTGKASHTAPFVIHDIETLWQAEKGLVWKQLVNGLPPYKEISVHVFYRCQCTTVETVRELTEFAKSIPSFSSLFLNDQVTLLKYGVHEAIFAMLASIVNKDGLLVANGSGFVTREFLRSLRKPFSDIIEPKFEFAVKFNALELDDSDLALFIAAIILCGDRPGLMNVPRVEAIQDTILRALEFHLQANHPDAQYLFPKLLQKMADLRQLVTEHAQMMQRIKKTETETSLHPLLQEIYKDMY

[4] = target: T2, Peroxisome proliferator-activated receptor alpha; assay: In vitro potency of PPAR gene activation against human Peroxisome proliferator activated receptor alpha using chimeric Gal4-hPPAR transactivation assay (TA)
[5] = target: T1, Peroxisome proliferator-activated receptor gamma
Description: In vitro potency of PPAR gene activation against human PPAR gamma receptor using chimeric Gal4-hPPAR transactivation assay (TA)

[6] = target: T1, Peroxisome proliferator-activated receptor gamma; assay: (§1) In vitro transcriptional activation by human PPAR gamma Gal4 chimera
[7] = Longer half-life in dog (i.v.) at 0.5 mpk; type: ADME, organism-based, Canis lupus familiaris; conditions: in vivo, iv, 0.5 mg/kg
Cricetinae gen. sp. [8] = assay: In vivo percent change in serum cholesterol in hamsters at 10 mg/kg; type: functional, Cricetulus griseus
[9] = Bioavailability in rat (dose 2.0 mg/kg p.o.); type: ADME, organism-based; conditions: in vivo, po
[10] = as §1; parameters: species or system Canis lupus familiaris
Cricetinae gen. sp. [11] = assay: In vivo percent change in serum cholesterol in hamsters at 3 mg/kg; type: functional, Cricetulus griseus
[12] = Lower clearance in monkey (i.v.) at 0.5 mpk; type: ADME, organism-based; conditions: cercopithecidae, in vivo, iv, 0.5 mg/kg
Canis familiaris [13] = assay: In vivo percent change in serum cholesterol in dogs at 1 mg/kg; type: functional, Canis lupus familiaris
Cricetinae gen. sp. [14] = assay: In vivo serum cholesterol in hamsters at 10 mg/kg; type: functional, Cricetulus griseus
Canis familiaris [15] = assay: Lower clearance in dog (i.v.) at 0.5 mpk; type: ADME, organism-based, Canis lupus familiaris; conditions: in vivo, iv, 0.5 mg/kg
Cricetinae gen. sp. [16] = assay: In vivo percent change in triglyceride in hamsters at 10 mg/kg; type: functional, Cricetulus griseus
Rattus norvegicus [17] = assay: Dose-normalized area under curve in rat (i.v.) at 0.5 mpk; type: ADME, organism-based; conditions: in vivo, iv, 0.5 mg/kg
[18] = Longer half-life in monkey (i.v.) at 0.5 mpk; type: ADME, organism-based; conditions: cercopithecidae, in vivo, iv, 0.5 mg/kg
[19] = Longer half-life in rat (i.v.) at 0.5 mpk; type: ADME, organism-based; conditions: in vivo, iv, 0.5 mg/kg
Cricetinae gen. sp. [20] = assay: In vivo triglyceride in hamsters at 10 mg/kg; type: functional, Cricetulus griseus
Rattus norvegicus [21] = assay: Lower clearance in rat (i.v.) at 0.5 mpk; type: ADME, organism-based; conditions: in vivo, iv, 0.5 mg/kg
Rattus norvegicus [22] = assay: Dose-normalized area under curve in rat (p.o.) at 2.0 mpk; type: ADME, organism-based; conditions: in vivo, po, 2 mg/kg
Mesocricetus auratus = assay: In vivo serum cholesterol in Golden Syrian hamsters at 3 mg/kg
Canis familiaris [23] = assay: In vivo percent change in serum cholesterol in dogs at 3 mg/kg; type: functional, Canis lupus familiaris
[24] = Dose-normalized area under curve in monkey (p.o.) at 2.0 mpk; type: ADME; conditions: cercopithecidae, in vivo, po, 2 mg/kg
[25] = Longer half-life in rat (p.o.) at 2.0 mpk; type: ADME, organism-based; conditions: in vivo, po, 2 mg/kg
Cricetinae gen. sp. [26] = assay: In vivo triglyceride in hamsters at 3 mg/kg; type: functional, Cricetulus griseus
[27] = target: T4, Peroxisome proliferator-activated receptor gamma (Mus musculus, UniProt P37238); assay: In vitro transcriptional activation by PPAR gamma
T4 sequence (P37238 whole entry): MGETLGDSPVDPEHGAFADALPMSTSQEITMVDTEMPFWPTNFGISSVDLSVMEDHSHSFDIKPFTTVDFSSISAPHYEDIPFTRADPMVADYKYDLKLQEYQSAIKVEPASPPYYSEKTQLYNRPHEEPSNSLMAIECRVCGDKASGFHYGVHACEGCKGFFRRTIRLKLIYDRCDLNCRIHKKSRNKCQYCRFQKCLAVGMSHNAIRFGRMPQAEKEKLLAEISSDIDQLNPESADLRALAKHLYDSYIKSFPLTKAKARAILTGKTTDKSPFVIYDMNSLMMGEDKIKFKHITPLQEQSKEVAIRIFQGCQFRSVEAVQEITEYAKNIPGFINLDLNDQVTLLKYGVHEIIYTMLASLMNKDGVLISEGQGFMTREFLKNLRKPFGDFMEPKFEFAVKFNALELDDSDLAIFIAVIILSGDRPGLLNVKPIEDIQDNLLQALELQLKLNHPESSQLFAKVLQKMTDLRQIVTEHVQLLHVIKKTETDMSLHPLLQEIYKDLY

Canis familiaris [28] = assay: Dose-normalized area under curve in dog (p.o.) at 2.0 mpk; type: ADME, organism-based, Canis lupus familiaris; conditions: in vivo, po, 2 mg/kg
Cricetinae gen. sp. [29] = assay: In vivo percent change in triglyceride in hamsters at 3 mg/kg; type: functional, Cricetulus griseus
[30] = Bioavailability in dog (p.o.) at 2.0 mpk; type: ADME, organism-based, Canis lupus familiaris; conditions: in vivo, po, 2 mg/kg
[31] = Bioavailability in monkey (p.o.) at 2.0 mpk; type: ADME, organism-based; conditions: cercopithecidae, in vivo, po, 2 mg/kg
[32] = target: T2, Peroxisome proliferator-activated receptor alpha; assay: In vitro transcriptional activation by human PPAR alpha Gal4 chimera; Not active
[33] = target: T1, Peroxisome proliferator-activated receptor gamma; remark: listed apart in the source
Description: In vitro binding affinity for human PPAR gamma receptor using scintillation proximity assay (SPA)

IC50 [1]: 630 nM
EC50 [4]: 4600 nM
IC50 [2]: > 15000 nM
IC50 [3]: > 50000 nM
EC50 [5]: 890 nM
Compound: CCCc1cc(Oc2ccc(OC)cc2)ccc1OCCCOc1ccc2c(c1)OC(CC)(C(=O)O)CC2 (stereo not given)

IC50 [1]: 1800 nM
EC50 [4]: 6300 nM
IC50 [2]: > 15000 nM
IC50 [3]: > 15000 nM
EC50 [5]: 1600 nM
Compound: CCCc1cc(Oc2ccccc2)ccc1OCCCCOc1ccc2c(c1)OC(C(=O)O)CC2 (stereo not given)

EC50 [6]: 1000 nM
IC50 [1]: 4700 nM
EC50 [4]: 50 nM
IC50 [2]: 370 nM
IC50 [3]: > 50000 nM
Compound: CCC1(C(=O)O)CCc2ccc(OCCCOc3ccc(Oc4ccccc4)cc3F)cc2O1 (stereo not given)

EC50 [6]: 10000 nM
IC50 [1]: > 15000 nM
EC50 [4]: 220 nM
IC50 [2]: 1700 nM
IC50 [3]: > 50000 nM
Compound: CCC1(C(=O)O)CCc2ccc(OCCCOc3ccc(Oc4ccccc4)cc3)cc2O1 (stereo not given)

IC50 [1]: 750 nM
EC50 [4]: 100 nM
IC50 [2]: 1900 nM
IC50 [3]: > 50000 nM
EC50 [5]: 1000 nM
Compound: CCCc1cc(Oc2ccccc2)ccc1OCCCOc1ccc2c(c1)OC(C)(C(=O)O)CC2 (stereo not given)

IC50 [1]: 5100 nM
EC50 [4]: 5200 nM
IC50 [2]: > 15000 nM
IC50 [3]: > 50000 nM
EC50 [5]: 3600 nM
Compound: CCCc1cc(Oc2ccccc2)ccc1OCCCCOc1ccc2c(c1)OC(C)(C(=O)O)CC2 (stereo not given)

The next lines start with the compound.

Compound: CCCc1cc(Oc2ccccc2)ccc1OCCCOc1ccc2c(c1)OC(CC(C)C)(C(=O)O)CC2 (stereo not given)
IC50 [1]: 1200 nM
IC50 [2]: 3000 nM
IC50 [3]: 5000 nM

Compound: CC[C@]1(C(=O)O)CCc2ccc(OCCCOc3ccc(Oc4ccc(F)cc4)cc3Cl)cc2O1
half-life [7]: 10 h
Change (Cricetinae gen. sp. [8]): -40%
bioavailability [9]: 48%
EC50 [10]: 140 nM
Change (Cricetinae gen. sp. [11]): -21%
Clp [12]: 8.6 mL/min/kg
Change (Canis familiaris [13]): -23.3%
Activity (Cricetinae gen. sp. [14]): 65 mg/dL
Clp (Canis familiaris [15]): 3.5 mL/min/kg
Change (Cricetinae gen. sp. [16]): -48%
nAUC (Rattus norvegicus [17]): 10 µM·h
half-life [18]: 3.5 h
half-life [19]: 4.6 h
Activity (Cricetinae gen. sp. [20]): 159 mg/dL
Clp (Rattus norvegicus [21]): 3.4 mL/min/kg
nAUC (Rattus norvegicus [22]): 4.8 µM·h
Activity (Mesocricetus auratus): 85 mg/dL
Change (Canis familiaris [23]): -31.6%
nAUC [24]: 1.7 µM·h
half-life [25]: 3.7 h
Activity (Cricetinae gen. sp. [26]): 222 mg/dL
EC50 [27]: 150 nM
nAUC (Canis familiaris [28]): 9.2 µM·h
Change (Cricetinae gen. sp. [29]): -27%
bioavailability [30]: 92%
IC50 [3]: > 15000 nM
bioavailability [31]: 43%

Compound: CCCc1cc(Oc2ccccc2)ccc1OCCCOc1ccc2c(c1)CCC(C)(C(=O)O)O2 (stereo not given)
IC50 [1]: 1700 nM
IC50 [2]: 3300 nM
IC50 [3]: > 50000 nM
EC50 [5]: 6800 nM
EC50 [32]: Not Active

Compound: CCCc1cc(Oc2ccccc2)ccc1OCCCOc1ccc2c(c1)CCC(C(=O)O)O2 (stereo not given)
IC50 [1]: 2900 nM
IC50 [2]: > 15000 nM
IC50 [3]: > 15000 nM
EC50 [5]: 2800 nM
EC50 [32]: Not Active

Compound: CCCc1cc(Oc2ccc(S(C)(=O)=O)cc2)ccc1OCCCOc1ccc2c(c1)OC(CC)(C(=O)O)CC2 (stereo not given)
IC50 [33]: 370 nM
IC50 [2]: > 15000 nM
IC50 [3]: > 50000 nM
EC50 [5]: 2800 nM
EC50 [32]: Not Active
